“Also recorded” adds a separate entry of the source.
Columns and labels:
[1] = set-up: species or system horse; conditions: in vivo
From the text: Six stabled Thoroughbred horses (2 mares, 4 geldings; aged 5-9 years), were maintained on hay and mixed feed for a minimum of two weeks before the start of the study. Horses were fed at 8 am and 4 pm. The mixed feed was a mix of cereal sources, fibre sources and protein sources with added vitamins and minerals. The ingredients included, in descending order of inclusion, enriched fibre pellets, rolled oats, soya hull pellets, flaked maise, flaked barley, flaked peas, molgio, full fat soya, vegetable oils, lucerne (alfalfa), calcium carbonate, dicalcium phosphate, salt, lysine, magnesium phosphate and zinc sulphate. Analysis: oil 8%, protein 12%, fibre 11%, ash 7.5%.
Within each part of the study, the order of the feeds was randomised between horses using a Latin Square design. The study comprised four parts:
Part 1: Acute plasma glutamine response to a single feed of molassed sugar beet (mSB), naked oats (nO) and mixed feed (M). […] Total plasma proteins were measured as an indication of plasma volume changes related to the hay or test feeds. […]
Plasma was deproteinised with an equal volume of perchloric acid and neutralised with KHCO3. […] The method was a consolidation of those by Lund (1974), and, Beutler and Michal (1974), creating a one-step enzymic method applied to a microplate reader using only 20 μl of sample. […]

[2] = Plasma ammonia after feeding molassed sugar beet supplemented with L-glutamine (dry-strip analyser); format: in vivo, horse; conditions: glutamine supplementation, 60 mg/kg bwt with mSB
Experimental: The mSB, hay and water were provided as in Part 1.
Blood samples were drawn through an indwelling jugular catheter into tubes containing lithium heparin (on ice). In Part 1 samples were taken pre and at 0.5, 1, 1.5, 2, 3, 4, 6 and 8 hours post feed. In Parts 2, 3 and 4 samples were taken pre and at 0.25, 0.5, 0.75, 1, 1.5, 2, 3, 4, 6 and 8 hours. Samples were centrifuged, the plasma harvested, divided into aliquots and stored at −80° C.
Total plasma protein content was estimated using a refractometer (Goldberg Refractometer).

- response (peak concentration and AUC) compared with the peptide [1]: greater response
- effect on plasma ammonia concentration ([2]; listed as G): no significant increase
Structure (SMILES): NC(=O)CC[C@H](N)C(=O)O [L-glutamine]
- effect on plasma ammonia concentration [2]: unaffected; also recorded: Neither did oral ingestion of glutamine have any effect
